Laboratory results: patent publication US20060117399A1, “Animal model for human lymphomas” (Medical University, priority 2004, published 2006)

Tests used:
[1] = tested on: B lymphoma cells; assay: In vitro lymphocyte survival and apoptosis assays (trypan blue dye exclusion); format: cell-based, mouse; conditions: B lymphoma cells from p80HT transgenic mice; doxorubicin 0.5 μg/ml
Procedure: (§1) C-E: In vitro survival and apoptosis assays of splenic B cells and B lymphoma cells. Cells were either untreated (D) or treated with 0.5 μg/ml of doxorubicin (C) or with 20 μg/ml of LPS (E). Viability was determined by trypan blue dye exclusion assays. Data in (A-E) represent means±SD of cells from 5 mice of each genotype or from 58 lymphomas samples.
(§2) Purified splenic B cells and B lymphoma cells (10^5/well, 96-well plate) were cultured in DMEM supplemented with 10% FBS, 250 μM L-asparagine, and 50 μM 2-mercaptoethanol. Cells were either untreated or treated with recombinant mouse TNF-α (20 ng/ml, Calbiochem), Fas ligand (100 ng/ml, PeoproTech), LPS (20 μg/ml, Sigma), or doxorubicin (0.5 μg/ml, Ben Venue Laboratories), and viable cells were determined daily by trypan blue dye exclusion assays.

[2] = tested on: splenic B cells; assay: as above; format: cell-based, mouse; conditions: for sensitivity of splenic B cells to death stimuli: both wild-type and p80HT splenic B cells, TNF-α 20 ng/ml, Fas ligand 100 ng/ml, doxorubicin 0.5 μg/ml
Procedure: as §1, §2

COc1cccc2c1C(=O)c1c(O)c3c(c(O)c1C2=O)C[C@@](O)(C(=O)CO)C[C@@H]3O[C@H]1C[C@H](N)[C@H](O)[C@H](C)O1 [doxorubicin]
apoptosis induced by doxorubicin [1]: highly resistant
sensitivity of splenic B cells to death stimuli [2]: equally sensitive

TNF-a
sensitivity of splenic B cells to death stimuli [2]: highly resistant

lipopolysaccharide [LPS]
apoptosis induced by the activation signal (LPS) ([2]; p80HT splenic B cells, LPS 20 μg/ml): highly resistant
response of splenic B cells to LPS ([2]; splenic B cells generally, LPS 20 μg/ml, after about 3 days of proliferation): extensive apoptosis

B1: Fas ligand: death ligand, 100 ng/ml, PeoproTech (protein, UniProt P48023 130-281, looked up)
Tumor necrosis factor ligand …: QIGHPSPPPEKKELRKVAHLTGKSNSRSMPLEWEDTYGIVLLSGVKYKKGGLVINETGLYFVYSKVYFRGQSCNNLPLSHKVYMRNSKYPQDLVMMEGKMMSYCTTGQMWARSSYLGAVFNLTSADHLYVNVSELSLVNFEESQTFFGLYKL
sensitivity of splenic B cells to death stimuli [2]: highly resistant
